Data on 26 compounds can be found in ChEMBL document CHEMBL4359841, “Late-Stage Functionalization of Platensimycin Leading to Multiple Analogues with Improved Antibacterial Activity in Vitro and in Vivo” (2019).

The test system of test [1] is Staphylococcus aureus. Put plainly: Inhibition of FabB/FabF in methicillin-resistant Staphylococcus aureus assessed as antibacterial activity after 16 hrs by agar dilution method. A general note: Agar dilution tests growth on a series of plates holding different concentrations.
Test [2] has as its system Staphylococcus aureus. Put plainly: Inhibition of FabB/FabF in methicillin-resistant Staphylococcus aureus assessed as antibacterial activity at 5 ug/disk after 18 hrs by agar disk diffusion method.
In test [3] the test system is Staphylococcus aureus. The test is described as follows: Antibacterial activity against methicillin-resistant Staphylococcus aureus infected in C57BL/6J mouse model of peritonitis assessed as mouse survival at 10 mg/kg, ip dosed at 1 hr and 5 hrs post infection and measured for 7 days relative to control. The format is functional.
For test [4], the system named is Staphylococcus aureus. Put plainly: Inhibition of FabB/FabF in Staphylococcus aureus ATCC 29213 assessed as antibacterial activity after 16 hrs by agar dilution method.
The test system of test [5] is Staphylococcus aureus. Put plainly: Inhibition of FabB/FabF in methicillin-resistant Staphylococcus aureus assessed as antibacterial activity at 2 ug/disk after 18 hrs by agar disk diffusion method. On the technique in general: Agar diffusion results depend on both activity and mobility in agar.
Test [6] relates to Staphylococcus aureus. Put plainly: Antibacterial activity against methicillin-resistant Staphylococcus aureus infected in C57BL/6J mouse model of peritonitis assessed as mouse survival at 20 mg/kg, ip dosed at 1 hr and 5 hrs post infection and measured for 7 days relative to control. The format is functional.
Test [7] relates to Staphylococcus aureus. The test is described as follows: Inhibition of FabB/FabF in methicillin-sensitive Staphylococcus aureus assessed as antibacterial activity after 16 hrs by agar dilution method.
Test [8] has as its system Staphylococcus aureus. Put plainly: Antibacterial activity against methicillin-resistant Staphylococcus aureus infected in BALB/c mouse model of skin infection assessed as bacterial load in skin lesions at 2 mg administered topically as ointment twice daily for 7 days and measured at 24 hrs post last dose (7.9 +/- 0.9 x 10^8 CFU/g). It counts as functional.
Test [9] relates to Staphylococcus aureus. Put plainly: Antibacterial activity against methicillin-resistant Staphylococcus aureus infected in BALB/c mouse model of skin wound assessed as retainment of fat layers at 2 mg administered topically as ointment twice daily for 7 days and measured after 24 hrs by HE staining analysis. It counts as functional, organism-based.
For test [10], the system named is Staphylococcus aureus. The test is described as follows: Antibacterial activity against methicillin-resistant Staphylococcus aureus infected in BALB/c mouse model of skin wound assessed as reduction in appearance of secondary scald at 2 mg administered topically as ointment twice daily for 7 days and measured after 24 hrs by visual inspection method. It counts as functional, organism-based.

Test [11] relates to Staphylococcus aureus. Put plainly: Antibacterial activity against methicillin-resistant Staphylococcus aureus infected in BALB/c mouse model of skin wound assessed as retainment of dermis layers at 2 mg administered topically as ointment twice daily for 7 days and measured and after 24 hrs by HE staining analysis. The format is functional, organism-based.
The test system of test [12] is Staphylococcus aureus. Put plainly: Antibacterial activity against methicillin-resistant Staphylococcus aureus infected in BALB/c mouse model of skin wound assessed as reduction in detachment of epidermis from dermis at 2 mg administered topically as ointment twice daily for 7 days and measured after 24 hrs by visual inspection method. It counts as functional, organism-based.

The structures appear in SMILES notation. In brackets after ≈: the same amount, converted by molar mass. Activity calls are given as the source filed them.

Consider `Cc1ccc(SC2=C[C@]34C[C@H]5C[C@H](O[C@@]5(C)C3)[C@H]4[C@](C)(CCC(=O)Nc3c(O)ccc(C(=O)O)c3O)C2=O)cc1`, for which the values for the MIC with Staphylococcus aureus [1], in the test on Staphylococcus aureus [4] and in the test with Staphylococcus aureus [7] were 0.25 µg/mL (≈ 0.444 µM), 0.5 µg/mL (≈ 0.887 µM) and 0.25 µg/mL (≈ 0.444 µM), respectively. Besides, the “antibacterial activity (disk diffusion, qualitative)” value (shortened to “antibacterial activity”) with Staphylococcus aureus [2] is “Active”. Further, the survival at 10 mg/kg in the test with Staphylococcus aureus [3] was more than 60%. Moreover, the inhibition result with Staphylococcus aureus [5] is “Active”. In the test on Staphylococcus aureus [6], the survival at 20 mg/kg came to 80%.

As for `C[C@]12C[C@@]34C=C(Sc5ccc(F)cc5)C(=O)[C@@](C)(CCC(=O)Nc5c(O)ccc(C(=O)O)c5O)[C@@H]3[C@H](C[C@@H]1C4)O2`, the MIC in the test with Staphylococcus aureus [1] came out at 0.5 µg/mL (≈ 0.881 µM); with Staphylococcus aureus [4], 1 µg/mL (≈ 1.76 µM); in the test with Staphylococcus aureus [7] it was 0.5 µg/mL (≈ 0.881 µM). Further, the “antibacterial activity” value in the test on Staphylococcus aureus [2] was “Active”.

With `CC(=O)NC[C@H]1CN(c2ccc(N3CCOCC3)c(F)c2)C(=O)O1`, the MIC in the test on Staphylococcus aureus [1], with Staphylococcus aureus [4] and in the test with Staphylococcus aureus [7] was 1 µg/mL (≈ 2.96 µM) throughout. For the same compound, in the test on Staphylococcus aureus [2], the “antibacterial activity” value was “Active”.

On to `C[C@]12C[C@@]34C=C(Sc5cccc(C#Cc6ccccn6)c5)C(=O)[C@@](C)(CCC(=O)Nc5c(O)ccc(C(=O)O)c5O)[C@@H]3[C@H](C[C@@H]1C4)O2`, for which the MIC in the test on Staphylococcus aureus [1], in the test with Staphylococcus aureus [4] and with Staphylococcus aureus [7] was 0.5 µg/mL (≈ 0.768 µM) each time. In the test on Staphylococcus aureus [2], the “antibacterial activity” value is “Active”.

Take `C[C@]12C[C@@]34C=C(Sc5ccccn5)C(=O)[C@@](C)(CCC(=O)Nc5c(O)ccc(C(=O)O)c5O)[C@@H]3[C@H](C[C@@H]1C4)O2`: the MIC in the test on Staphylococcus aureus [1], in the test with Staphylococcus aureus [4] and with Staphylococcus aureus [7] was 2 µg/mL (≈ 3.63 µM) in each case. In the test with Staphylococcus aureus [2], the “antibacterial activity” value is “Active”. Also, the Survival entry in the test with Staphylococcus aureus [3] is “inactive”.

As for `C[C@]12C[C@@]34C=C(Sc5cccc(C#CC6(O)CCCCC6)c5)C(=O)[C@@](C)(CCC(=O)Nc5c(O)ccc(C(=O)O)c5O)[C@@H]3[C@H](C[C@@H]1C4)O2`, the MIC in the test with Staphylococcus aureus [1], in the test on Staphylococcus aureus [4] and in the test on Staphylococcus aureus [7] was 0.25 µg/mL (≈ 0.372 µM) in each case. Further, in the test on Staphylococcus aureus [2], the “antibacterial activity” value is “Active”.

For the compound `C/C(=C\C(=O)OCCCCCCCCC(=O)O)C[C@@H]1OC[C@H](C[C@@H]2O[C@H]2[C@@H](C)[C@H](C)O)[C@@H](O)[C@H]1O` [MUPIROCIN], the Activity with Staphylococcus aureus [8] turned out to be 6.5 ×10⁶ CFU/g. The outcome in the test on Staphylococcus aureus [9], with Staphylococcus aureus [10], with Staphylococcus aureus [11] and with Staphylococcus aureus [12] was Active.

As to `C[C@]12C[C@@]34C=C(Sc5cccc(I)c5)C(=O)[C@@](C)(CCC(=O)Nc5c(O)ccc(C(=O)O)c5O)[C@@H]3[C@H](C[C@@H]1C4)O2`, the MIC in the test on Staphylococcus aureus [1] was determined as 0.5 µg/mL (≈ 0.74 µM); in the test with Staphylococcus aureus [4] it was 1 µg/mL (≈ 1.48 µM); with Staphylococcus aureus [7], 0.5 µg/mL (≈ 0.74 µM). Further, the “antibacterial activity” value in the test on Staphylococcus aureus [2] is “Active”.

Take `C[C@]12C[C@]34C[C@H]1C[C@H](O2)[C@H]3[C@](C)(CCC(=O)Nc1c(O)ccc(C(=O)O)c1O)C(=O)[C@@H]1O[C@@H]14`: the MIC was 16 µg/mL (≈ 35 µM) in the test on Staphylococcus aureus [1], 32 µg/mL (≈ 69.9 µM) in the test on Staphylococcus aureus [4] and 16 µg/mL (≈ 35 µM) with Staphylococcus aureus [7].

As to `C[C@]12C[C@@]34C=C(SCc5ccccc5)C(=O)[C@@](C)(CCC(=O)Nc5c(O)ccc(C(=O)O)c5O)[C@@H]3[C@H](C[C@@H]1C4)O2`, the MIC with Staphylococcus aureus [1], in the test on Staphylococcus aureus [4] and with Staphylococcus aureus [7] was 0.5 µg/mL (≈ 0.887 µM) each time. Besides, the “antibacterial activity” value with Staphylococcus aureus [2] was “Active”. For the same compound, the survival at 10 mg/kg in the test on Staphylococcus aureus [3] was more than 60%. In addition, in the test on Staphylococcus aureus [6], the survival at 20 mg/kg worked out at 80%.

In the case of `C[C@]12C[C@@]34C=C(Sc5ccc(C#CC6CC6)cc5)C(=O)[C@@](C)(CCC(=O)Nc5c(O)ccc(C(=O)O)c5O)[C@@H]3[C@H](C[C@@H]1C4)O2`, the “antibacterial activity” value in the test with Staphylococcus aureus [2] was “Active”.

On to `C[C@]12C[C@@]34C=C(Sc5cccc(-c6ccc(C=O)cc6)c5)C(=O)[C@@](C)(CCC(=O)Nc5c(O)ccc(C(=O)O)c5O)[C@@H]3[C@H](C[C@@H]1C4)O2`, for which the “antibacterial activity” value with Staphylococcus aureus [2] was “Active”.

As to `C[C@]12C[C@@]34C=C(Sc5cccc(/C=C/C(=O)OCCO)c5)C(=O)[C@@](C)(CCC(=O)Nc5c(O)ccc(C(=O)O)c5O)[C@@H]3[C@H](C[C@@H]1C4)O2`, the “antibacterial activity” value in the test on Staphylococcus aureus [2] was “Active”.

Consider `C[C@]12C[C@@]34C=C(Sc5ccc(Cl)cc5)C(=O)[C@@](C)(CCC(=O)Nc5c(O)ccc(C(=O)O)c5O)[C@@H]3[C@H](C[C@@H]1C4)O2`, for which the “antibacterial activity” value with Staphylococcus aureus [2] was “Active”.

Turning to `CC(C)(C)SC1=C[C@]23C[C@H]4C[C@H](O[C@@]4(C)C2)[C@H]3[C@](C)(CCC(=O)Nc2c(O)ccc(C(=O)O)c2O)C1=O`, the “antibacterial activity” value with Staphylococcus aureus [2] was “Active”.

As to `C[C@]12C[C@@]34C=C(Sc5cccc(C#CCN)c5)C(=O)[C@@](C)(CCC(=O)Nc5c(O)ccc(C(=O)O)c5O)[C@@H]3[C@H](C[C@@H]1C4)O2`, the “antibacterial activity” value in the test with Staphylococcus aureus [2] is “Active”.

As to `C[C@]12C[C@@]34C=C(Sc5ccc(-c6cccc(O)c6)cc5)C(=O)[C@@](C)(CCC(=O)Nc5c(O)ccc(C(=O)O)c5O)[C@@H]3[C@H](C[C@@H]1C4)O2`, the “antibacterial activity” value in the test with Staphylococcus aureus [2] was “Active”.

On to `C[C@]12C[C@@]34C=C(Sc5cccc(-c6cccnc6)c5)C(=O)[C@@](C)(CCC(=O)Nc5c(O)ccc(C(=O)O)c5O)[C@@H]3[C@H](C[C@@H]1C4)O2`, for which the “antibacterial activity” value with Staphylococcus aureus [2] was “Active”.

Consider `C[C@]12C[C@@]34C=C(Sc5ccc(I)cc5)C(=O)[C@@](C)(CCC(=O)Nc5c(O)ccc(C(=O)O)c5O)[C@@H]3[C@H](C[C@@H]1C4)O2`, for which the MIC in the test on Staphylococcus aureus [1] was found to be 0.25 µg/mL (≈ 0.37 µM); in the test with Staphylococcus aureus [4], 0.5 µg/mL (≈ 0.74 µM); in the test on Staphylococcus aureus [7], 0.25 µg/mL (≈ 0.37 µM). Also, the “antibacterial activity” value with Staphylococcus aureus [2] was “Active”.

With `C[C@]12C[C@@]34C=C(Sc5cccc(-c6ccccc6)c5)C(=O)[C@@](C)(CCC(=O)Nc5c(O)ccc(C(=O)O)c5O)[C@@H]3[C@H](C[C@@H]1C4)O2`, the “antibacterial activity” value in the test on Staphylococcus aureus [2] was “Active”.

Turning to `CCCSC1=C[C@]23C[C@H]4C[C@H](O[C@@]4(C)C2)[C@H]3[C@](C)(CCC(=O)Nc2c(O)ccc(C(=O)O)c2O)C1=O`, the MIC was 0.5 µg/mL (≈ 0.97 µM) in the test with Staphylococcus aureus [1], 1 µg/mL (≈ 1.94 µM) with Staphylococcus aureus [4] and 0.5 µg/mL (≈ 0.97 µM) with Staphylococcus aureus [7]. Moreover, the “antibacterial activity” value in the test on Staphylococcus aureus [2] was “Active”.

Consider `C[C@]12C[C@@]34C=C(Sc5cccc(-c6ccccc6F)c5)C(=O)[C@@](C)(CCC(=O)Nc5c(O)ccc(C(=O)O)c5O)[C@@H]3[C@H](C[C@@H]1C4)O2`, for which the “antibacterial activity” value in the test on Staphylococcus aureus [2] was “Active”.

As to `COC(=O)/C=C/c1ccc(SC2=C[C@]34C[C@H]5C[C@H](O[C@@]5(C)C3)[C@H]4[C@](C)(CCC(=O)Nc3c(O)ccc(C(=O)O)c3O)C2=O)cc1`, the “antibacterial activity” value in the test with Staphylococcus aureus [2] is “Active”.

Take `COc1ccc(C#Cc2cccc(SC3=C[C@]45C[C@H]6C[C@H](O[C@@]6(C)C4)[C@H]5[C@](C)(CCC(=O)Nc4c(O)ccc(C(=O)O)c4O)C3=O)c2)cc1`: the “antibacterial activity” value in the test with Staphylococcus aureus [2] is “Active”.

For the compound `CCCCc1ccc(C#Cc2cccc(SC3=C[C@]45C[C@H]6C[C@H](O[C@@]6(C)C4)[C@H]5[C@](C)(CCC(=O)Nc4c(O)ccc(C(=O)O)c4O)C3=O)c2)cc1`, in the test with Staphylococcus aureus [2], the “antibacterial activity” value is “Active”.

As to `C[C@]12C[C@@]34C=C(Sc5cccc(-c6cccc(O)c6)c5)C(=O)[C@@](C)(CCC(=O)Nc5c(O)ccc(C(=O)O)c5O)[C@@H]3[C@H](C[C@@H]1C4)O2`, the “antibacterial activity” value with Staphylococcus aureus [2] is “Active”.
